Assay results taken from patent US10745382B2 (BRISTOL-MYERS SQUIBB COMPANY, priority 2015, dated 2020).

The compounds below were run against T1, PD-1/PD-L1 (Homo sapiens, UniProt Q9NZQ7) (assay: PD-1/PD-L1 Homogenous Time-Resolved Fluorescence (HTRF) binding assay). Settings: PD-L1-His 10 nM, PD-1-Ig 20 nM; numeric IC50; read-out: Range or IC50.
T1 construct: made in house; host or cells: HEK293T
Summary of the method: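 Compounds are tested for blocking the PD-1/PD-L1 interaction in dPBS supplemented with 0.1% BSA and 0.05% (v/v) Tween-20. Tagged proteins are detected with Eu-cryptate anti-Ig and APC anti-His at 1 and 20 nM final.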

T1 sequence (Q9NZQ7 with tags, fused parts or gaps): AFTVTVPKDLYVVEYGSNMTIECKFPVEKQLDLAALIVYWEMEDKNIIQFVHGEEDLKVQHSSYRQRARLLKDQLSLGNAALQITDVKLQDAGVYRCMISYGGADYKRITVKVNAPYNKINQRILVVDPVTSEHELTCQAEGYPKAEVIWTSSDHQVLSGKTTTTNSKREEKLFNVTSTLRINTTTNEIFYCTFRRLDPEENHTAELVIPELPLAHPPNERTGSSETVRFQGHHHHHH

Row | IC50 | SMILES
1 | 2.8 nM | CCOC(=O)C1(CO)CCN(CCCOc2cccc(-c3cccc(COc4cc(OCc5cncc(C#N)c5)c(CN5CCC(CO)(C(=O)OCC)C5)cc4Cl)c3C)c2Cl)C1 (centres unmarked) [Example 1102, ethyl 1-(3-((2-chloro-3′-((2-chloro-5-((5-cyanopyridin-3-yl)methoxy)-4-((3-(ethoxycarbonyl)-3-(hydroxymethyl)pyrrolidin-1-yl)methyl)phenoxy)methyl)-2′-methyl-[1,1′-biphenyl]-3-yl)oxy)propyl)-3-(hydroxymethyl)pyrrolidine-3-carboxylate]
2 | 6 nM | CC(=O)N[C@H]1CCN(CCCOc2cccc(-c3c(Cl)ccc(COc4cc(OCc5cncc(C#N)c5)c(CNC(C)(CO)CO)cc4Cl)c3Cl)c2C)C1 [Example 2094, N-((3S)-1-(3-((2′,6′-dichloro-3′-((2-chloro-5-((5-cyanopyridin-3-yl)methoxy)-4-(((1,3-dihydroxy-2-methylpropan-2-yl)amino)methyl)phenoxy)methyl)-2-methyl-[1,1′-biphenyl]-3-yl)oxy)propyl)pyrrolidin-3-yl)acetamide]
3 | 0.9 nM | Cc1c(COc2cc(OCc3cncc(C#N)c3)c(CN3CCCC[C@H]3C(=O)O)cc2Cl)cccc1-c1cccc(OCCCNC[C@H](O)CO)c1C [Example 2333, (S)-1-(5-chloro-2-((5-cyanopyridin-3-yl)methoxy)-4-((3′-(3-(((S)-2,3-dihydroxypropyl)amino)propoxy)-2,2′-dimethyl-[1,1′-biphenyl]-3-yl)methoxy)benzyl)piperidine-2-carboxylic Acid]

Same assay, conditions: PD-L1-His 10 nM, PD-1-Ig 20 nM; value given as range class; read-out: Range or IC50

Row | SMILES | IC50
4 | COc1cc(NC(=O)c2cccc(-c3cccc(OCCCN4CC[C@@H](O)C4)c3C)c2C)c(Cl)cc1C(=O)N1CCCC[C@H]1C(=O)O [Example 4519, (S)-1-(5-chloro-4-(3′-(3-((R)-3-hydroxypyrrolidin-1-yl)propoxy)-2,2′-dimethyl-[1,1′-biphenyl]-3-ylcarboxamido)-2-methoxybenzoyl)piperidine-2-carboxylic Acid] | 100 to 2000 nM
5 | Cc1c(COc2cc(OCc3cncc(C#N)c3)c(CN3C[C@@H](O)C[C@H]3C(=O)O)cc2Cl)cccc1-c1cccc(C(=O)N2CCOCC2)c1C [Example 4051, (2S,4S)-1-(5-chloro-2-((5-cyanopyridin-3-yl)methoxy)-4-((2,2′-dimethyl-3′-(morpholine-4-carbonyl)-[1,1′-biphenyl]-3-yl)methoxy)benzyl)-4-hydroxypyrrolidine-2-carboxylic Acid] | 10 to 100 nM
6 | Cc1c(COc2cc(OCc3cncc(C#N)c3)c(CN3CCCC[C@H]3C(=O)O)cc2Cl)cccc1-c1cccc(OCCCN2CCC(N(C)C(=O)OC(C)(C)C)CC2)c1C [Example 2246, (2S)-1-(4-((3′-(3-(4-(tert-butoxycarbonyl(methyl)amino)piperidin-1-yl)propoxy)-2,2′-dimethylbiphenyl-3-yl)methoxy)-5-chloro-2-((5-cyanopyridin-3-yl)methoxy)benzyl)piperidine-2-carboxylic Acid] | 0.21 to 10 nM
7 | Cc1c(OCCCNC[C@H](O)CO)cccc1-c1cccc(COc2cc(OCc3cncc(C#N)c3)c(CNC(CO)CO)cc2Cl)c1Cl [Example 2299, (S)-5-((4-chloro-5-((2-chloro-3′-(3-((2,3-dihydroxypropyl)amino)propoxy)-2′-methyl-[1,1′-biphenyl]-3-yl)methoxy)-2-(((1,3-dihydroxypropan-2-yl)amino)methyl)phenoxy)methyl)nicotinonitrile] | 0.21 to 10 nM
8 | Cc1c(OCCCNC[C@H](O)CO)cccc1-c1cccc(COc2cc(OCc3cncc(C#N)c3)c(CNC(C)(CO)CO)cc2Cl)c1Cl [Example 2307, (S)-5-((4-chloro-5-((2-chloro-3′-(3-((2,3-dihydroxypropyl)amino)propoxy)-2′-methyl-[1,1′-biphenyl]-3-yl)methoxy)-2-(((1,3-dihydroxy-2-methylpropan-2-yl)amino)methyl)phenoxy)methyl)nicotinonitrile] | 0.21 to 10 nM
9 | CC(=O)N[C@@H]1CCN(CCCOc2cccc(-c3cccc(COc4cc(OCc5cncc(C#N)c5)c(CN5CC[C@@H](NC(C)=O)C5)cc4Cl)c3C)c2C)C1 [Example 2267, N-((3R)-1-(3-(3′-((4-(((R)-3-acetamidopyrrolidin-1-yl)methyl)-2-chloro-5-((5-cyanopyridin-3-yl)methoxy)phenoxy)methyl)-2,2′-dimethylbiphenyl-3-yloxy)propyl)pyrrolidin-3-yl)acetamide] | 0.21 to 10 nM

Continued, values first:

Row | IC50 | SMILES
10 | 0.21 to 10 nM | Cc1c(COc2cc(OCc3cncc(C#N)c3)c(CNC(CO)CO)cc2Cl)cccc1-c1cccc(Nc2cc(N3CCOCC3)ncn2)c1C [Example 2350, 5-((4-chloro-2-(((1,3-dihydroxypropan-2-yl)amino)methyl)-5-((2,2′-dimethyl-3′-((6-morpholinopyrimidin-4-yl)amino)-[1,1′-biphenyl]-3-yl)methoxy)phenoxy)methyl)nicotinonitrile]
11 | 0.21 to 10 nM | COC(=O)C1CCN(CCCOc2cccc(-c3cccc(COc4cc(OCc5cncc(C#N)c5)c(CNC[C@H](O)CO)cc4Cl)c3C)c2Cl)CC1 [Example 2027, (S)-methyl 1-(3-((2-chloro-3′-((2-chloro-5-((5-cyanopyridin-3-yl)methoxy)-4-(((2,3-dihydroxypropyl)amino)methyl)phenoxy)methyl)-2′-methyl-[1,1′-biphenyl]-3-yl)oxy)propyl)piperidine-4-carboxylate]
12 | 0.21 to 10 nM | CCC(CO)(CO)NCc1cc(Cl)c(OCc2cccc(-c3cccc(OCCCN4CCCC(CO)C4)c3C)c2C)cc1OCc1cncc(C#N)c1 (centres unmarked) [Example 2283, 5-((4-chloro-2-(((1-hydroxy-2-(hydroxymethyl)butan-2-yl)amino)methyl)-5-((3′-(3-(3-(hydroxymethyl)piperidin-1-yl)propoxy)-2,2′-dimethyl-[1,1′-biphenyl]-3-yl)methoxy)phenoxy)methyl)nicotinonitrile]
13 | 0.21 to 10 nM | Cc1c(COc2cc(OCc3cncc(C#N)c3)c(CN(C)[C@@](C)(CO)C(=O)O)cc2Cl)cccc1-c1cccc(OCCCN2CCC(F)(F)C2)c1C [Example 4115, (S)-2-((5-chloro-2-((5-cyanopyridin-3-yl)methoxy)-4-((3′-(3-(3,3-difluoropyrrolidin-1-yl)propoxy)-2,2′-dimethyl-[1,1′-biphenyl]-3-yl)methoxy)benzyl)(methyl)amino)-3-hydroxy-2-methylpropanoic Acid]
14 | 0.21 to 10 nM | Cc1c(COc2cc(OCc3cncc(C#N)c3)c(CN[C@](C)(CO)C(=O)O)cc2Cl)cccc1-c1cccc(OCCCN(C)C[C@H](O)CO)c1Cl [Example 2024, (R)-2-((5-chloro-4-((2′-chloro-3′-(3-(((S)-2,3-dihydroxypropyl)(methyl)amino)propoxy)-2-methyl-[1,1′-biphenyl]-3-yl)methoxy)-2-((5-cyanopyridin-3-yl)methoxy)benzyl)amino)-3-hydroxy-2-methylpropanoic Acid]
15 | 0.21 to 10 nM | Cc1c(COc2cc(OCc3cncc(C#N)c3)c(CN[C@@](C)(CO)C(=O)O)cc2Cl)cccc1-c1cccc(OCCCN2CC[C@@H](O)C2)c1Cl [Example 1511, (S)-2-((5-chloro-4-((2′-chloro-3′-(3-((R)-3-hydroxypyrrolidin-1-yl)propoxy)-2-methyl-[1,1′-biphenyl]-3-yl)methoxy)-2-((5-cyanopyridin-3-yl)methoxy)benzyl)amino)-3-hydroxy-2-methylpropanoic acid]
16 | 0.21 to 10 nM | Cc1c(COc2cc(OCc3cncc(C#N)c3)c(CNC3(CO)COC3)cc2Cl)cccc1-c1cccc(OCCCN2CC[C@@H](O)C2)c1Cl [Example 2110, (R)-5-((4-chloro-5-((2′-chloro-3′-(3-(3-hydroxypyrrolidin-1-yl)propoxy)-2-methyl-[1,1′-biphenyl]-3-yl)methoxy)-2-(((3-(hydroxymethyl)oxetan-3-yl)amino)methyl)phenoxy)methyl)nicotinonitrile]
17 | 0.21 to 10 nM | Cc1c(COc2cc(OCc3cncc(C#N)c3)c(CNC(CO)CO)c(C)c2Cl)cccc1-c1cccc(OCCCN2CC[C@@H](O)C2)c1C [Example 4102, (R)-5-((4-chloro-2-(((1,3-dihydroxypropan-2-yl)amino)methyl)-5-((3′-(3-(3-hydroxypyrrolidin-1-yl)propoxy)-2,2′-dimethyl-[1,1′-biphenyl]-3-yl)methoxy)-3-methylphenoxy)methyl)nicotinonitrile]
18 | 0.21 to 10 nM | COc1c(COc2cc(OCc3cncc(C#N)c3)c(CN[C@](C)(CO)C(=O)O)cc2Cl)cccc1-c1cccc(OCCCN2CC[C@@H](O)C2)c1C [Example 3025, (R)-2-((5-chloro-2-((5-cyanopyridin-3-yl)methoxy)-4-((3′-(3-((R)-3-hydroxypyrrolidin-1-yl)propoxy)-2-methoxy-2′-methyl-[1,1′-biphenyl]-3-yl)methoxy)benzyl)amino)-3-hydroxy-2-methylpropanoic Acid]
19 | 0.21 to 10 nM | Cc1c(COc2cc(OCc3cncc(C#N)c3)c(CNC(C)(CO)CO)cc2Cl)cccc1-c1cccc(OC[C@H]2CCN(CC(O)CO)C2)c1Cl (stereo partly drawn) [Example 2119, 5-((4-chloro-5-((2′-chloro-3′-(((3S)-1-(2,3-dihydroxypropyl)pyrrolidin-3-yl)methoxy)-2-methyl-[1,1′-biphenyl]-3-yl)methoxy)-2-(((1,3-dihydroxy-2-methylpropan-2-yl)amino)methyl)phenoxy)methyl)nicotinonitrile]
20 | 0.21 to 10 nM | Cc1c(COc2cc(OCc3cncc(C#N)c3)c(CN3CCCC[C@H]3C(=O)O)cc2Cl)cccc1-c1cccc(OCCCN2C3COCC2COC3)c1C [Example 3052, (S)-1-(4-((3′-(3-((1s,5s)-3,7-dioxa-9-azabicyclo[3.3.1]nonan-9-yl)propoxy)-2,2′-dimethyl-[1,1′-biphenyl]-3-yl)methoxy)-5-chloro-2-((5-cyanopyridin-3-yl)methoxy)benzyl)piperidine-2-carboxylic Acid]
